≈ marks a conversion by molar mass, not a printed value. Calls of active or inactive are those of the source. The rule behind the calls is not given here.
Columns and labels:
[1] = Protein binding in 10% fetal calf serum; assay type: ADME, cell-free, Bos taurus; conditions: cattle, read-out: PB (converted)
[2] = Stability in mouse liver microsomes relative to hepatic blood flow; assay type: ADME, Microsome; conditions: read-out: Stability
[3] = molecular target: T1, D-3-phosphoglycerate dehydrogenase (Homo sapiens, UniProt O43175); test: Inhibition of PHGDH in human MDA-MB-468 cells assessed as reduction in [13C]-serine incubated for 72 hrs using [13C]glucose as substrate by LC-MS/MS analysis; assay type: cell-based
T1 sequence (O43175 whole entry): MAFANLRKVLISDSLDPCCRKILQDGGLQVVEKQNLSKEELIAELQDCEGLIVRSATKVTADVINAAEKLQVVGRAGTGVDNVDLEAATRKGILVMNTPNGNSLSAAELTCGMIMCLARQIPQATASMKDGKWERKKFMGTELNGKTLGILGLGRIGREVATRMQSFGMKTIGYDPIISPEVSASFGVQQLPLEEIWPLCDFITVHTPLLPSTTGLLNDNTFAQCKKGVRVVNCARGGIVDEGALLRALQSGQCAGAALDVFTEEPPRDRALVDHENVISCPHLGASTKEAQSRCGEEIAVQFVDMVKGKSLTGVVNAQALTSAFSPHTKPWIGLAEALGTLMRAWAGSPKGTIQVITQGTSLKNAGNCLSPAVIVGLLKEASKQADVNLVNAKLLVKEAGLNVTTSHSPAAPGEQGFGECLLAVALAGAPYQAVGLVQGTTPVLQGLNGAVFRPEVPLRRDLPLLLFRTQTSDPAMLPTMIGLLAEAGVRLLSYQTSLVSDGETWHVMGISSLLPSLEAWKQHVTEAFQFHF

[4] = Stability in human liver microsomes relative to hepatic blood flow; assay type: ADME, Microsome; conditions: read-out: Stability
[5] = Permeability from apical to basolateral side in human Caco2 cells; assay type: ADME, cell-based; conditions: caco-2
[6] = Solubility pH 6.8 buffer; assay type: physicochemical
[7] = molecular target: Alcohol dehydrogenase class-3 (Homo sapiens) (UniProt P11766); test: Binding affinity to Alcohol dehydrogenase class-3 in human MDA-MB-468 cells at 10 uM incubated for 2 hrs in presence of 2-[4-[(1S)-1-[[6-(10-aminodecyl)-4,5-dichloro-1-methyl-indole-2-carbonyl]amino]-2-hydroxy-ethyl]phenyl]sulfonylacetic acid by quantitative chemical proteomics assay; assay type: cell-based
Sequence of Alcohol dehydrogenase class-3 (Homo sapiens) (P11766 2-374 limits assumed): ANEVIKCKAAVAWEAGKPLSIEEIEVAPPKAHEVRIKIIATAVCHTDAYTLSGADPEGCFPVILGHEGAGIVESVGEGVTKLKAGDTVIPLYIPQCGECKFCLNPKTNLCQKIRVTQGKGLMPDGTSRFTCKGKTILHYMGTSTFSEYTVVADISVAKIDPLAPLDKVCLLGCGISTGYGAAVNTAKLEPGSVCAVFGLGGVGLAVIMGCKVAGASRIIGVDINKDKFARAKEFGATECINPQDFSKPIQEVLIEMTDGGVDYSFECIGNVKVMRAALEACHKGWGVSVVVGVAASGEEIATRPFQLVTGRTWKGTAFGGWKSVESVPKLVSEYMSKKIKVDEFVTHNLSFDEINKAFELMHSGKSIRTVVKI

[8] = molecular target: T2, 3-hydroxyisobutyrate dehydrogenase, mitochondrial (Homo sapiens) (UniProt P31937); test: Binding affinity to 3-hydroxyisobutyrate dehydrogenase in human MDA-MB-468 cells at 10 uM incubated for 2 hrs in presence of 12-amino-2-[4-[(1S)-1-[(4,5-dichloro-1,6-dimethyl-indole-2-carbonyl)amino]-2-hydroxy-ethyl]phenyl]sulfonyl-dodecanoic acid by quantitative chemical proteomics assay; assay type: cell-based
T2 sequence (whole entry): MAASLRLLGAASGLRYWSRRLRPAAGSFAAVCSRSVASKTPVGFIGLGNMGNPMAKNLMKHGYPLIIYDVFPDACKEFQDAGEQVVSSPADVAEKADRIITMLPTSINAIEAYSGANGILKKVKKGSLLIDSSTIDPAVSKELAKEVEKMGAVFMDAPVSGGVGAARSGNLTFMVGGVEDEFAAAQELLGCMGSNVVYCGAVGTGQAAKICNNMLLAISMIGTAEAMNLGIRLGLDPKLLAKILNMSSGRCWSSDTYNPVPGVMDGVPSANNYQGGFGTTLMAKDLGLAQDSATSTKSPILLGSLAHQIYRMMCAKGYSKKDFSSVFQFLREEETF

[9] = Stability in rat liver microsomes relative to hepatic blood flow; assay type: ADME, Microsome; conditions: read-out: Stability
[10] = molecular target: Alcohol dehydrogenase class-3 (Homo sapiens) (UniProt P11766); test: Binding affinity to Alcohol dehydrogenase class-3 in human MDA-MB-468 cells at 10 uM incubated for 2 hrs in presence of 12-amino-2-[4-[(1S)-1-[(4,5-dichloro-1,6-dimethyl-indole-2-carbonyl)amino]-2-hydroxy-ethyl]phenyl]sulfonyl-dodecanoic acid by quantitative chemical proteomics assay; assay type: cell-based
[11] = Protein binding in mouse plasma; assay type: ADME, cell-free; conditions: read-out: PPB (converted)
[12] = Efflux ratio of permeability from apical to basolateral side over basolateral to apical side in human Caco2 cells; assay type: ADME, cell-based; conditions: caco-2
[13] = Stability in mouse hepatocytes relative to hepatic blood flow; assay type: ADME, cell-based, Hepatocyte; conditions: read-out: Stability
[14] = Solubility pH 4.5 buffer; assay type: physicochemical
[15] = molecular target: T2, 3-hydroxyisobutyrate dehydrogenase, mitochondrial (Homo sapiens); test: Binding affinity to 3-hydroxyisobutyrate dehydrogenase in human MDA-MB-468 cells at 10 uM incubated for 2 hrs in presence of 2-[4-[(1S)-1-[[6-(10-aminodecyl)-4,5-dichloro-1-methyl-indole-2-carbonyl]amino]-2-hydroxy-ethyl]phenyl]sulfonylacetic acid by quantitative chemical proteomics assay; assay type: cell-based
[16] = Permeability from basolateral to apical side in human Caco2 cells; assay type: ADME, cell-based; conditions: caco-2

- fraction unbound [1]: 0.17
- hepatic extraction ratio [2]: < 0.23
- IC50 [3]: 2200 nM
- hepatic extraction ratio [4]: < 0.24
- permeability [5]: 0.2 ×10⁻⁶ cm/s
- solubility [6]: 59 mg/mL (≈ 118 mM)
- Activity [7]: Active
- Activity [8]: Active
- hepatic extraction ratio [9]: < 0.24
- Activity [10]: Active
- fraction unbound [11]: 0.004
- Ratio [12]: 11
- hepatic extraction ratio [13]: 0.38
- solubility [14]: 64 mg/mL (≈ 128 mM)
- Activity [15]: Active
- permeability [16]: 0.2 ×10⁻⁶ cm/s
Structure (SMILES): Cc1cc2c(cc(C(=O)N[C@H](CO)c3ccc(S(=O)(=O)CC(=O)O)cc3)n2C)c(Cl)c1Cl
